Experimental findings from ChEMBL document CHEMBL1137975, “DNA binding ligands with in vivo efficacy in murine models of bacterial infection: optimization of internal aromatic amino acids” (2004) are described below.

Values after ≈ are worked out from the molar mass of the structure shown.

What all share (assay type): functional
The species named for assay [1] is Mus musculus. Briefly: Minimum inhibitory concentration was evaluated in mice against antimicrobial activity in methicillin-resistant Staphylococcus aureus(MRSA 27660); 0.25-1.
For assay [2], the species on record is Mus musculus. The assay is described as follows: Minimum inhibitory concentration was evaluated in mice against antimicrobial activity in […] (PISP 49619); 1-2.
The species named for assay [3] is Mus musculus. The assay is described as follows: Minimum inhibitory concentration was evaluated in mice against antimicrobial activity in […] Enterococcus faecalis (VSEF 29212); 0.5-2.

By MIC is commonly meant the lowest concentration that inhibits growth of the organism. Read a high MIC as weaker potency. For `Cn1cc(NC(=O)c2cc(NC(=O)c3cc(NC(=O)c4cc5ccccc5cn4)cn3C)c[nH]2)cc1C(=O)NCCN1CCOCC1`, the MIC in the assay listed under Mus musculus [1] is 1 µg/mL (≈ 1.57 µM); in the assay listed under Mus musculus [2], 2 µg/mL (≈ 3.14 µM); in the assay filed under Mus musculus [3], 2 µg/mL (≈ 3.14 µM).
